Legend:
Type in all cases: functional
MOLT-4 [1] = assay: Growth inhibition of human MOLT4 cells assessed as cell growth at 10^-8 M incubated for 48 hrs by sulforhodamine B assay relative to control; settings: MOLT-4, 48 h, read-out: Activity
NCI-H322M = assay: Growth inhibition of human NCI-H322M cells assessed as cell growth at 10^-8 M incubated for 48 hrs by sulforhodamine B assay relative to control; settings: read-out: Activity
M14 = assay: Growth inhibition of human M14 cells assessed as cell growth at 10^-8 M incubated for 48 hrs by sulforhodamine B assay relative to control; settings: M14, 48 h, read-out: Activity
SK-MEL-28 = assay: Growth inhibition of human SK-MEL-28 cells assessed as cell growth at 10^-8 M incubated for 48 hrs by sulforhodamine B assay relative to control; settings: SK-MEL-28, 48 h, read-out: Activity
NCI-H226 = assay: Growth inhibition of human NCI-H226 cells assessed as cell growth at 10^-7 M incubated for 48 hrs by sulforhodamine B assay relative to control; settings: NCI-H226, 48 h, read-out: Activity
HCT-15 = assay: Growth inhibition of human HCT15 cells assessed as cell growth at 10^-7 M incubated for 48 hrs by sulforhodamine B assay relative to control; settings: HCT-15, 48 h, read-out: Activity
SK-MEL-5 [2] = assay: Growth inhibition of human SK-MEL-5 cells assessed as cell growth at 10^-7 M incubated for 48 hrs by sulforhodamine B assay relative to control; settings: SK-MEL-5, 48 h, read-out: Activity
UACC-257 [3] = assay: Growth inhibition of human UACC257 cells assessed as cell growth at 10^-7 M incubated for 48 hrs by sulforhodamine B assay relative to control; settings: UACC-257, 48 h, read-out: Activity
NCI/ADR-RES = assay: Growth inhibition of human NCI/ADR-RES cells assessed as cell growth at 10^-7 M incubated for 48 hrs by sulforhodamine B assay relative to control; settings: read-out: Activity
TK-10 [4] = assay: Growth inhibition of human TK10 cells assessed as cell growth at 10^-7 M incubated for 48 hrs by sulforhodamine B assay relative to control; settings: TK-10, 48 h, read-out: Activity
PC-3 = assay: Growth inhibition of human PC3 cells assessed as cell growth at 10^-7 M incubated for 48 hrs by sulforhodamine B assay relative to control; settings: PC-3, 48 h, read-out: Activity
HOP-62 = assay: Growth inhibition of human HOP62 cells assessed as cell growth at 10^-6 M incubated for 48 hrs by sulforhodamine B assay relative to control; settings: HOP-62, 48 h, read-out: Activity
HOP-92 = assay: Growth inhibition of human HOP92 cells assessed as cell growth at 10^-6 M incubated for 48 hrs by sulforhodamine B assay relative to control; settings: HOP-92, 48 h, read-out: Activity
COLO 205 = assay: Growth inhibition of human COLO205 cells assessed as cell growth at 10^-6 M incubated for 48 hrs by sulforhodamine B assay relative to control; settings: COLO 205, 48 h, read-out: Activity
KM12 = assay: Growth inhibition of human KM12 cells assessed as cell growth at 10^-6 M incubated for 48 hrs by sulforhodamine B assay relative to control; settings: KM12, 48 h, read-out: Activity
Malme-3M = assay: Growth inhibition of human MALME-3M cells assessed as cell growth at 10^-6 M incubated for 48 hrs by sulforhodamine B assay relative to control; settings: read-out: Activity
SK-MEL-5 [5] = assay: Growth inhibition of human SK-MEL-5 cells assessed as cell growth at 10^-6 M incubated for 48 hrs by sulforhodamine B assay relative to control; settings: SK-MEL-5, 48 h, read-out: Activity
UACC-257 [6] = assay: Growth inhibition of human UACC257 cells assessed as cell growth at 10^-6 M incubated for 48 hrs by sulforhodamine B assay relative to control; settings: UACC-257, 48 h, read-out: Activity
RXF 393 = assay: Growth inhibition of human RXF393 cells assessed as cell growth at 10^-6 M incubated for 48 hrs by sulforhodamine B assay relative to control; settings: RXF 393, 48 h, read-out: Activity
MOLT-4 [7] = assay: Growth inhibition of human MOLT4 cells assessed as cell growth at 10^-5 M incubated for 48 hrs by sulforhodamine B assay relative to control; settings: MOLT-4, 48 h, read-out: Activity
SR = assay: Growth inhibition of human SR cells assessed as cell growth at 10^-5 M incubated for 48 hrs by sulforhodamine B assay relative to control; settings: read-out: Activity
NCI-H23 = assay: Growth inhibition of human NCI-H23 cells assessed as cell growth at 10^-5 M incubated for 48 hrs by sulforhodamine B assay relative to control; settings: NCI-H23, 48 h, read-out: Activity
U-251 [8] = assay: Growth inhibition of human U251 cells assessed as cell growth at 10^-5 M incubated for 48 hrs by sulforhodamine B assay relative to control; settings: U-251, 48 h, read-out: Activity
UO-31 [9] = assay: Growth inhibition of human UO31 cells assessed as cell growth at 10^-5 M incubated for 48 hrs by sulforhodamine B assay relative to control; settings: UO-31, 48 h, read-out: Activity
MOLT-4 [10] = assay: Growth inhibition of human MOLT4 cells assessed as cell growth at 10^-4 M incubated for 48 hrs by sulforhodamine B assay relative to control; settings: MOLT-4, 48 h, read-out: Activity
SNB-75 = assay: Growth inhibition of human SNB75 cells assessed as cell growth at 10^-4 M incubated for 48 hrs by sulforhodamine B assay relative to control; settings: SNB-75, 48 h, read-out: Activity
U-251 [11] = assay: Growth inhibition of human U251 cells assessed as cell growth at 10^-4 M incubated for 48 hrs by sulforhodamine B assay relative to control; settings: U-251, 48 h, read-out: Activity
OVCAR-3 = assay: Growth inhibition of human OVCAR3 cells assessed as cell growth at 10^-4 M incubated for 48 hrs by sulforhodamine B assay relative to control; settings: OVCAR-3, 48 h, read-out: Activity
OVCAR-5 = assay: Growth inhibition of human OVCAR5 cells assessed as cell growth at 10^-4 M incubated for 48 hrs by sulforhodamine B assay relative to control; settings: OVCAR-5, 48 h, read-out: Activity
A498 = assay: Growth inhibition of human A498 cells assessed as cell growth at 10^-4 M incubated for 48 hrs by sulforhodamine B assay relative to control; settings: A498, 48 h, read-out: Activity
ACHN = assay: Growth inhibition of human ACHN cells assessed as cell growth at 10^-4 M incubated for 48 hrs by sulforhodamine B assay relative to control; settings: read-out: Activity
TK-10 [12] = assay: Growth inhibition of human TK10 cells assessed as cell growth at 10^-4 M incubated for 48 hrs by sulforhodamine B assay relative to control; settings: TK-10, 48 h, read-out: Activity
UO-31 [13] = assay: Growth inhibition of human UO31 cells assessed as cell growth at 10^-4 M incubated for 48 hrs by sulforhodamine B assay relative to control; settings: UO-31, 48 h, read-out: Activity
T47D = assay: Growth inhibition of human T47D cells assessed as cell growth at 10^-4 M incubated for 48 hrs by sulforhodamine B assay relative to control; settings: read-out: Activity

What does the source list for `CCCCOc1nc2ccccc2cc1C1CNC(=O)c2ccccc2N1` (centres undefined)?
growth at 0.01 µM (MOLT-4 [1]): 70%; growth at 0.01 µM (NCI-H322M): 94%; growth at 0.01 µM (M14): 96%; growth at 0.01 µM (SK-MEL-28): 103%; growth at 0.1 µM (NCI-H226): 79%; growth at 0.1 µM (HCT-15): 98%; growth at 0.1 µM (SK-MEL-5 [2]): 100%; growth at 0.1 µM (UACC-257 [3]): 92%; growth at 0.1 µM (NCI/ADR-RES): 97%; growth at 0.1 µM (TK-10 [4]): 83%; growth at 0.1 µM (PC-3): 97%; growth at 1 µM (HOP-62): 78%; growth at 1 µM (HOP-92): 62%; growth at 1 µM (COLO 205): 98%; growth at 1 µM (KM12): 85%; growth at 1 µM (Malme-3M): 62%; growth at 1 µM (SK-MEL-5 [5]): 73%; growth at 1 µM (UACC-257 [6]): 70%; growth at 1 µM (RXF 393): 80%; growth at 10 µM (MOLT-4 [7]): 6%; growth at 10 µM (SR): 1%; growth at 10 µM (NCI-H23): 33%; growth at 10 µM (U-251 [8]): 12%; growth at 10 µM (UO-31 [9]): 31%; growth at 100 µM (MOLT-4 [10]): -37%; growth at 100 µM (SNB-75): -79%; growth at 100 µM (U-251 [11]): -77%; growth at 100 µM (OVCAR-3): -92%; growth at 100 µM (OVCAR-5): -24%; growth at 100 µM (A498): -38%; growth at 100 µM (ACHN): -71%; growth at 100 µM (TK-10 [12]): -62%; growth at 100 µM (UO-31 [13]): -67%; growth at 100 µM (T47D): 10%

Source: ChEMBL document CHEMBL4138146, “A Schmidt rearrangement-mediated synthesis of novel tetrahydro-benzo[1,4]diazepin-5-ones as potential anticancer and antiprotozoal agents” (Eur J Med Chem, 2017)
